Paper PMC10387993, “New pyrimidine-N-β-D-glucosides: synthesis, biological evaluation, and molecular docking investigations” (Turkish Journal of Chemistry, 2023)
Converted amounts (≈) assume the structure as drawn. Where two headings read alike, the source gives them in different places.

Assays:
Assay type in all cases: cell-based
A549 = experiment: cells; conditions: Homo sapiens; for LC50 (concentration causing 50% net cell loss): A549, read-out: LC50; for GI50 / IC50 / IC (total growth inhibition): A549, MTT; for IC50: read-out: IC50; for IC (total growth inhibition): read-out: TGI
Summary of the method: (§1)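 In this MTT proliferation screen, formazan formed over 4 h was read at 560 nm against a 690 nm reference. Each line was tested at least three times, and the IC50 was taken as the concentration inhibiting half of the cells.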

HeLa = experiment: cells; conditions: Homo sapiens; for GI50 / IC50 / IC (total growth inhibition): MTT; for IC50: read-out: IC50; for IC (total growth inhibition): read-out: TGI; for LC50 (concentration causing 50% net cell loss): read-out: LC50
Summary of the method: as §1

in vitro = conditions: human, LC50
Summary of the method: as §1

normal FL cells = experiment: cells; conditions: FL normal cells, MTT; for IC50: read-out: IC50; for IC (total growth inhibition): read-out: TGI
Summary of the method: as §1

[1] = LDH cytotoxic activity assay, HeLa; conditions: human, HeLa cells
Summary of the method: (§2)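 Harvest ~80%-confluent cells with trypsin-EDTA, seed ~5 × 10^3 per well in DMEM or RPMI 1640 containing 10% FBS, then add compound at 25–100 μg/mL (four levels) for 24 h at 37 °C. Finish by reading LDH activity at 492–630 nm.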

[2] = LDH cytotoxic activity assay, HT29; conditions: human, HT29 cells; for cytotoxicity at 24 h, 25 μg/mL: HT29, 25 μg/mL; for cytotoxicity at 24 h, 50 μg/mL: HT29, 50 μg/mL; for cytotoxicity at 24 h, 75 μg/mL: HT29, 75 μg/mL; for cytotoxicity at 24 h, 100 μg/mL: HT29, 100 μg/mL
Summary of the method: as §2

[3] = test system: A. actinomycetemcomitans ATCC 33384; experiment: Microdilution MIC assay; conditions: Aggregatibacter actinomycetemcomitans, ATCC33384; A. actinomycetemcomitans ATCC 33384, 24 h at 35 °C
Experimental: (§3) MIC values of the compounds against bacterial strains were determined on the basis of a microwell dilution method. […] […]. Growth of microorganisms was determined visually after incubation for 24 h at 35 °C. The lowest concentration at which there was no visible growth (turbidity) was taken as the MIC.

E. coli ATCC 25922 = experiment: Microdilution MIC assay; conditions: Escherichia coli, ATCC25922; E. coli ATCC 25922, 24 h at 35 °C
Experimental: as §3

E. coli ESBL ATCC 35218 = experiment: Microdilution MIC assay; conditions: Escherichia coli, ATCC35218; E. coli ESBL ATCC 35218, 24 h at 35 °C
Experimental: as §3

E. faecalis ATCC 29212 = experiment: Microdilution MIC assay; conditions: E. faecalis ATCC 29212, 24 h at 35 °C
Experimental: as §3

[4] = test system: E. faecalis VRE ATCC 19433; experiment: Microdilution MIC assay; conditions: Enterococcus faecalis; E. faecalis VRE ATCC 19433, 24 h at 35 °C
Experimental: as §3

[5] = test system: P. aeruginosa AGME ATCC 27853; experiment: Microdilution MIC assay; conditions: Pseudomonas aeruginosa, ATCC27853; P. aeruginosa AGME ATCC 27853, 24 h at 35 °C
Experimental: as §3

S. aureus ATCC 25923 = experiment: Microdilution MIC assay; conditions: S. aureus ATCC 25923, 24 h at 35 °C
Experimental: as §3

[6] = test system: S. aureus MRSA ATCC 46300; experiment: Microdilution MIC assay; conditions: S. aureus MRSA ATCC 46300, 24 h at 35 °C
Experimental: as §3

[7] = test system: S. aureus MSSA ATCC 29213; experiment: Microdilution MIC assay; conditions: S. aureus MSSA ATCC 29213, 24 h at 35 °C
Experimental: as §3

S. gordonii NCTC 7870 = experiment: Microdilution MIC assay; conditions: Streptococcus gordonii, NCTC7870; S. gordonii NCTC 7870, 24 h at 35 °C
Experimental: as §3

S. mutans ATCC 35668 = experiment: Microdilution MIC assay; conditions: S. mutans ATCC 35668, 24 h at 35 °C
Experimental: as §3

[8] = Enterococcus faecalis, ATCC29212, 24 h, read-out: MIC
[9] = Staphylococcus aureus, ATCC25923, 24 h, read-out: MIC
[10] = Staphylococcus aureus, read-out: MIC
[11] = Staphylococcus aureus, 24 h, read-out: MIC
[12] = Streptococcus mutans, ATCC35668, 24 h, read-out: MIC

Row | Compound | LC50 (concentration causing 50% net cell loss) (A549) [µg/mL] | GI50 (A549) [µg/mL] | IC50 (A549) [µg/mL] | IC (total growth inhibition) (A549) [µg/mL] | GI50 (HeLa) [µg/mL] | IC50 (HeLa) [µg/mL] | IC (total growth inhibition) (HeLa) [µg/mL] | LC50 (concentration causing 50% net cell loss) (HeLa) [µg/mL] | LC50 (concentration causing 50% net cell loss) (in vitro) [µg/mL] | GI50 (normal FL cells) [µg/mL] | IC50 (normal FL cells) [µg/mL] | IC (total growth inhibition) (normal FL cells) [µg/mL] | cytotoxicity at 24 h, 25 μg/mL [1] [%] | cytotoxicity at 24 h, 50 μg/mL [1] [%] | cytotoxicity at 24 h, 75 μg/mL [1] [%] | cytotoxicity at 24 h, 100 μg/mL [1] [%] | cytotoxicity at 24 h, 25 μg/mL [2] [%] | cytotoxicity at 24 h, 50 μg/mL [2] [%] | cytotoxicity at 24 h, 75 μg/mL [2] [%] | cytotoxicity at 24 h, 100 μg/mL [2] [%] | other results
1 | Cc1ccc(-c2cc(-c3ccncc3)nc(N[C@@H]3O[C@H](CO)[C@@H](O)[C@H](O)[C@H]3O)n2)cc1 [Compound 9, N-[4-(4-methylphenyl)-6-pyridin-4-ylpyrimidin-2-yl]-β-D-glucopyranosylamine] | > 500 | > 500 | > 500 | > 500 | > 500 | > 500 | > 500 | > 500 | > 500 | 7.04 (≈ 16.6 µM) | > 500 | > 500 | 10 | 34.3 | 49.6 | 55.9 | 25.7 | 40.9 | 74.7 | 81.8 | MIC [3]: 500 µg/mL (≈ 1180 µM); MIC (E. coli ATCC 25922): > 1000 µg/mL; MIC (E. coli ESBL ATCC 35218): > 1000 µg/mL; MIC (E. faecalis ATCC 29212; [8]): 1000 µg/mL (≈ 2360 µM); MIC [4]: 1000 µg/mL (≈ 2360 µM); MIC [5]: > 1000 µg/mL; MIC (S. aureus ATCC 25923; [9]): 1000 µg/mL (≈ 2360 µM); MIC [6, 10]: 1000 µg/mL (≈ 2360 µM); MIC [7]: 125 µg/mL (≈ 294 µM); MIC [7, 11]: 62.5 to 125 µg/mL (≈ 147 to 294 µM); MIC (S. gordonii NCTC 7870): 1000 µg/mL (≈ 2360 µM); MIC (S. mutans ATCC 35668; [12]): 250 µg/mL (≈ 589 µM)
2 | CC(=O)OC[C@H]1O[C@@H](Nc2nc(-c3cccnc3)cc(-c3cccc(C)c3)n2)[C@H](OC(C)=O)[C@@H](OC(C)=O)[C@@H]1OC(C)=O [Compound 14, 2,3,4,6-tetra-O-acetyl-N-[4-(3-methylphenyl)-6-pyridin-3-ylpyrimidin-2-yl]-β-D-glucopyranosylamine] | > 500 | 430 (≈ 726 µM) | > 500 | > 500 | > 500 | > 500 | > 500 | > 500 | > 500 | 118 (≈ 199 µM) | > 500 | > 500 | 16.6 | 28.8 | 33.5 | 48.8 | 21 | 44.6 | 61.8 | 72.2 | MIC [3]: > 1000 µg/mL; MIC (E. coli ATCC 25922): > 1000 µg/mL; MIC (E. coli ESBL ATCC 35218): > 1000 µg/mL; MIC (E. faecalis ATCC 29212): 31.25 µg/mL (≈ 52.7 µM); MIC (E. faecalis ATCC 29212; [8]): 31.2 to 125 µg/mL (≈ 52.7 to 211 µM); MIC [4]: 1000 µg/mL (≈ 1690 µM); MIC [5]: > 1000 µg/mL; MIC (S. aureus ATCC 25923; [9]): 500 µg/mL (≈ 844 µM); MIC [6, 10]: 250 µg/mL (≈ 422 µM); MIC [7]: 125 µg/mL (≈ 211 µM); MIC [7, 11]: 62.5 to 125 µg/mL (≈ 105 to 211 µM); MIC (S. gordonii NCTC 7870): > 1000 µg/mL; MIC (S. mutans ATCC 35668): 62.5 µg/mL (≈ 105 µM); MIC (S. mutans ATCC 35668; [12]): 62.5 to 125 µg/mL (≈ 105 to 211 µM)
3 | Cc1ccc(-c2cc(-c3cccnc3)nc(N[C@@H]3O[C@H](CO)[C@@H](O)[C@H](O)[C@H]3O)n2)cc1 [Compound 8, N-[4-(4-methylphenyl)-6-pyridin-3-ylpyrimidin-2-yl]-β-D-glucopyranosylamine] | > 500 | > 500 | > 500 | > 500 | 14.1 (≈ 33.2 µM) | 81.3 (≈ 191 µM) | 50.1 | 325 (≈ 766 µM) | > 500 | 5.64 (≈ 13.3 µM) | > 500 | > 500 | 12.5 | 35 | 42 | 49 | 20.6 | 34.5 | 75.8 | 95.9 | MIC [3]: 500 µg/mL (≈ 1180 µM); MIC (E. coli ATCC 25922): 1000 µg/mL (≈ 2360 µM); MIC (E. coli ESBL ATCC 35218): > 1000 µg/mL; MIC (E. faecalis ATCC 29212; [8]): 1000 µg/mL (≈ 2360 µM); MIC [4]: 500 µg/mL (≈ 1180 µM); MIC [5]: > 1000 µg/mL; MIC (S. aureus ATCC 25923): 15.62 µg/mL (≈ 36.8 µM); MIC (S. aureus ATCC 25923; [9]): 15.6 to 125 µg/mL (≈ 36.8 to 294 µM); MIC [6]: <7.81 µg/mL; MIC [6, 10]: < 7.81 µg/mL; MIC [7]: 62.5 µg/mL (≈ 147 µM); MIC [7, 11]: 62.5 to 125 µg/mL (≈ 147 to 294 µM); MIC (S. gordonii NCTC 7870): 250 µg/mL (≈ 589 µM); MIC (S. mutans ATCC 35668; [12]): 250 µg/mL (≈ 589 µM)
